This note sets out measurements from patent US12534465B2, “5H-pyrrolo[3,2-d]pyrimidine-2,4-diamino compounds and antibody conjugates thereof” (SUTRO BIOPHARMA, INC., priority 2019, dated 2026).

Test [1] addresses T1, mouse TLR7 (Mus musculus, UniProt P58681).
T1 construct: host or cells: HEK293
T1 sequence (P58681 27-1050): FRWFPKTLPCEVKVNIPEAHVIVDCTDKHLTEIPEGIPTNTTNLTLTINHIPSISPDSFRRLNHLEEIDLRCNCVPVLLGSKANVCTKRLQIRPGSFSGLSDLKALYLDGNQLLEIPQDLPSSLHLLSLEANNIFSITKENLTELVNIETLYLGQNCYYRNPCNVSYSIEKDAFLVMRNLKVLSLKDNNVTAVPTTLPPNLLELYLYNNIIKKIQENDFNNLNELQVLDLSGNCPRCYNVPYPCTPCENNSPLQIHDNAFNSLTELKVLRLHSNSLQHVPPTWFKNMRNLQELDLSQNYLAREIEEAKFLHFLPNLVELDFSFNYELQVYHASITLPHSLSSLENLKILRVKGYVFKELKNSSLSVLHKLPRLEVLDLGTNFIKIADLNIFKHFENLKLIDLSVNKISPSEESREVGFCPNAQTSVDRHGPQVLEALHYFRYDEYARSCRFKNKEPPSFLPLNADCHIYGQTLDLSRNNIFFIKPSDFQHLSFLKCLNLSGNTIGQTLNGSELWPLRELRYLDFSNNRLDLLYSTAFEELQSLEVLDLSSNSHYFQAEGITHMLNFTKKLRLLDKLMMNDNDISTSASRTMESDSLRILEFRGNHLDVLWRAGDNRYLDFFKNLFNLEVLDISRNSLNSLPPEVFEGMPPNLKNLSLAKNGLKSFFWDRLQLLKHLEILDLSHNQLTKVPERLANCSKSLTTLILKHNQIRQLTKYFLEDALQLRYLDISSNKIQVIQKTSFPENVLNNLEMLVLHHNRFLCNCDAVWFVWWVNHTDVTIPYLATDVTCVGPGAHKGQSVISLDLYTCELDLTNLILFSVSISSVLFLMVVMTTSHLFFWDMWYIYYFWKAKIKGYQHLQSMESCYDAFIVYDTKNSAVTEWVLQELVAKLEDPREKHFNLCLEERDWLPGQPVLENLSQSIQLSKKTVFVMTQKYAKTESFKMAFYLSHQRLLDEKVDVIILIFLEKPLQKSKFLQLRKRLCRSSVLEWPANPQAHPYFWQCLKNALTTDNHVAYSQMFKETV
As to the kind of experiment: HEK293-mouseTLR7 SEAP reporter assay (Example 8). The test is classed as cell-based. As to conditions: HEK293-mTLR7 SEAP reporter cells, 24 hrs. How it is done:
In this example, the in vitro activity of compounds to activate human TLR7 (or human TLR8 or mouse TLR7) pathway was evaluated on HEK293 reporter cells transfected with human TLR7 (or human TLR8 or mouse TLR7) and an inducible SEAP (secreted embryonic alkaline phosphatase) reporter gene. The SEAP reporter gene is placed under the control of the IFN-β minimal promoter fused to five NF-κB and AP-1-binding sites. Stimulation with a TLR7 agonist activates NF-κB and AP-1 which induces the production of SEAP. Levels of SEAP were determined by HEK-Blue Detection medium.
The in vitro activity of compounds on TLR7 (human and mouse) and TLR8 (human only) reporter cell lines was assessed as follows. 5-(2-methoxy-4-(piperazin-1-ylmethyl)benzyl)-N4-pentyl-5H-pyrrolo[3,2-d]pyrimidine-2,4-diamine (Compound 1) is a compound used for comparison and has the structure shown below:
HEK293-humanTLR7 (hTLR7), HEK293-mouseTLR7 (mTLR7) and HEK293-humanTLR8 (hTLR8) reporter cell lines were purchased from Invivogen and cell lines were maintained in the manufacturer's recommended culture medium with required supplemental antibiotics. On the day of assay, the cells were harvested with Accutase and counted by the Vi-CELL Cell Viability Analyzers. Cells were resuspended in HEK blue detection medium and a total of 10,000 cells were seeded in each well of a 384-well flat bottom plate. Serial dilutions of test compounds (1:4 serial dilution starting from 5 μM) were added into treatment wells and assay plates were cultured at 37° C. in a CO2 incubator for 24 hrs. The plates were then read by spectrophotometry at 640 nm. Data was fitted with non-linear regression analysis, using a log(inhibitor) vs. response-variable slope, 3-parameter fit with GraphPad Prism. There result was reported in Table 1 as EC50 (the midpoint of the curve, or concentration at which 50% of the maximum effect was observed).

For test [2], the target named is T1, mouse TLR7. As to the kind of experiment: HEK293 SEAP reporter assay, TLR panel (Example 10). The test is classed as cell-based. As to conditions: 16 hrs. An excerpt:
In this example, the activity of the compound 10 to stimulate different human and mouse TLR pathways was investigated on HEK293 cells transfected with inducible SEAP (secreted embryonic alkaline phosphatase) reporter genes and also expressing different human TLRs (TLR2, TLR3, TLR4, TLR5, TLR7, TLR8, TLR9) or mouse TLRs (TLR2, TLR3, TLR4, TLR5, TLR7, TLR8, TLR13).
HEK293 reporter cell lines were purchased from Invivogen and cell lines were maintained in manufacture recommended culture medium with required supplemental antibiotics. On the day of assay, the cells were harvested with Accutase and counted by the Vi-CELL Cell Viability Analyzers. Cells were resuspended in HEK blue detection medium and a total of 10000 cells were seeded in each well of a 384-well flat bottom plate. Serial dilutions of compound 10 and compound 1 was added into treatment wells. Assay plates were cultured at 37° C. in a CO2 incubator for 16 hrs. HEK-Blue™ Detection medium changes to a purple/blue color in the presence of secreted SEAP, which can be detected by spectrophotometry at 620-655 nm. Data was fitted with non-linear regression analysis, using a log(inhibitor) vs. response-variable slope, 3-parameter fit with GraphPad Prism.
(In a reporter assay the amount or activity of a reporter protein is the signal.)

The structures appear in SMILES notation.

One may read the EC50 as the midpoint of the concentration-response curve. Higher therefore signals a less potent agent. Consider `CCCCCNc1nc(N)nc2ccn(Cc3ccc(CN4CCNCC4)cc3OC)c12` [Compound 1, 5-(2-methoxy-4-(piperazin-1-ylmethyl)benzyl)-N4-pentyl-5H-pyrrolo[3,2-d]pyrimidine-2,4-diamine, reference compound], for which the EC50 is 4.6 nM in test [1] and 2.6 nM in test [2]. Take `CCCCCNc1nc(N)nc2ccn(Cc3ccc(CN4CC(NC)C4)cc3OC)c12` [Compound 2, 5-(2-methoxy-4-((3-(methylamino)azetidin-1-yl)methyl)benzyl)-N4-pentyl-5H-pyrrolo[3,2-d]pyrimidine-2,4-diamine]: the EC50 in test [1] came to 10.2 nM. For the compound `CCCCCNc1nc(N)nc2ccn(Cc3ccc(CN4CC5(CNCCO5)C4)cc3OC)c12` [Compound 10, 5-[[2-methoxy-4-(5-oxa-2,8-diazaspiro[3.5]nonan-2-ylmethyl)phenyl]methyl]-N4-pentyl-pyrrolo[3,2-d]pyrimidine-2,4-diamine], the EC50 in test [1] is 3.7 nM; in test [2], 22.9 nM.
